Test results as given in patent US20100093645A1, “SMAC Peptidomimetics and the Uses Thereof” (priority 2004, published 2010).
Where “and” joins values, the source holds several entries; their conditions need not be identical. Identical values can stand only once. Like-named read-outs stand apart in the source and are kept apart here. Each block holds one compound with its values, some of them ahead of it. Square brackets hold non-standard residues; d marks the D form. Peptide text beside a SMILES is read from it. * marks the point of attachment. 6FAM = O=C1OC2(c3ccc(O)cc3Oc3cc(O)ccc32)c2cc(C(=O)*)ccc21; Abu = CC[C@H](N)C(=O)O; NHPr = CCCN*

Legend:
[1] = target: T1, human XIAP-BIR3 protein (residues 241-356) (Homo sapiens, UniProt P98170); experiment: Fluorescence polarization saturation (direct) binding of labeled Smac peptides; settings: 5 nM labeled peptide, protein 0 to 40 μM, read-out: Kd value (dissociation constant) to XIAP-BIR3
[2] = target: T1, human XIAP-BIR3 protein (residues 241-356); experiment: biochemical
Target sequence in this assay (P98170 241-356): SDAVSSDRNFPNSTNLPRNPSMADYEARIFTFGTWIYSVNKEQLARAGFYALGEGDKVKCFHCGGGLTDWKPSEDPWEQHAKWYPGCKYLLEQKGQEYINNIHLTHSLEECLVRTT

[3] = tested on: MDA-231 breast cancer cell line; experiment: MTT cell viability assay in MDA-231 cells; assay type: cell-based; settings: Homo sapiens, MDA-MB-231, 120 h, read-out: EC50 growth inhibition
Description: (§1) . The cells were then incubated at 37 C with 5% CO2 for 5 days, followed by detection of cell viability with the MTT assay. Untreated cells were used as 100% growth. […].

PC-3 cells [4] = experiment: Apoptosis by Annexin V-FITC staining in PC-3 cells, alone or with CDDP; assay type: cell-based, human
Description: […]. […] […]. The experiment used PC-3 cells which express high levels of XIAP and cIAP-1/2 proteins and cisplatin (CDDP) as the chemotherapeutic drug. CDDP is a DNA damaging agent and can effectively induce apoptosis in PC-3 cells and is also a clinically used chemotherapeutic drug for prostate cancer.
PC-3 cells were treated with CDDP, Smac peptides and peptidomimetics alone or in combination for 42 hours and apoptosis was analyzed by Annexin V-FITC staining. […] Combination of 25 μM CDDP and 10 μM or 25 μM SH-97 induced 29.3%±1.9% and 35.8%±0.4% apoptosis over control cells, respectively (FIG. 6A). […].
In a similar experiment, PC-3 cells were treated with the Smac peptidomimetic CJ-445 (Table 3) and CDDP as described above. Combination of 25 μM CDDP and 5 μM or 10 μM CJ-445 induced about 30% and about 35% apoptosis over control cells, respectively (FIG. 7).

PC-3 cells [5] = experiment: MTT cell viability assay in PC-3 cells; assay type: cell-based; settings: Homo sapiens
Description: as §1

PC-3 cells [6] = experiment: Clonogenic assay with X-ray radiation in PC-3 cells
[7] = tested on: MDA-231 breast cancer cells; experiment: Apoptosis by Annexin V-FITC/propidium iodide flow cytometry in MDA-231 cells, alone or with CDDP; assay type: cell-based, human; settings: 42 hours
Description: Another experiment was carried out in which MDA-231 breast cancer cells in 6-well plates were treated with SH-97 and CDDP, alone or in combination, for 42 hours. Cells were collected and stained with Annexin V-FITC and propidium iodide. The fluorescence of individual cells was analyzed by flow cytometry. 25 and 50 μM CDDP induced about 30% and about 45%, respectively, of cancer cells to undergo apoptosis as compared to control cells (FIG. 8). Combination of 25 or 50 μM CDDP and 10 μM SH-97 induced about 50% and 90% apoptosis over control cells, respectively (FIG. 8). […] (FIG. 8).

[8] = target: human XIAP-BIR3 protein (residues 241-356) with a His tag (human) (UniProt P98170); experiment: fluorescence polarization, saturation; 5 nM peptide titrated with 0 to 40 µM protein
human XIAP-BIR3 protein (residues 241-356) with a His tag (human), sequence (P98170 241-356 limits assumed): as the sequence (P98170 241-356) above

[9] = target: human XIAP-BIR3 protein (residues 241-356) with a His tag (human) (UniProt P98170); experiment: fluorescence polarization, saturation; against S9F as reference
[10] = target: human XIAP-BIR3 protein (residues 241-356) with a His tag (human) (UniProt P98170); experiment: fluorescence polarization; 5 nM SM5F and 0.030 µM XIAP-BIR3
[11] = target: human XIAP-BIR3 protein (residues 241-356) with a His tag (human) (UniProt P98170); experiment: competitive fluorescence polarization, SM5F tracer; against S9 as reference
[12] = 10 μM compound + 25 μM CDDP, 42 hours
[13] = PC-3, MTT, read-out: EC50 growth inhibition

- Kd [1]: 0.018 µM and 0.0179 µM
Compound: CC[C@H](N)C(=O)N[C@@H](CCCNC(=N)N)C(=O)N1CCC[C@H]1C(=O)N[C@@H](Cc1ccccc1)C(=O)N[C@@H](CCCCNC(=O)c1ccc2c(c1)C1(OC2=O)c2ccc(O)cc2Oc2cc(O)ccc21)C(N)=O [SM5F, AbuRPFK-FAM] (H-[Abu]RPFK(6FAM)-NH2; N-terminus and C-terminus assumed)

- Ki [2]: 0.78 µM
Compound: CC(C)[C@H](NC(=O)[C@H](C)N)C(=O)N1CC[C@H]1C(=O)NC(c1ccccc1)c1ccccc1 [CJ-469]

Compound: CC(C)[C@H](NC(=O)[C@H](C)N)C(=O)N1CCC[C@H]1C(=O)NC(c1ccccc1)c1ccccc1 [Compound 11]
- EC50 [3]: 120 to 130 µM

- Ki [2]: 3.54 µM
Compound: C[C@H](N)C(=O)N[C@H](C(=O)N1CCC[C@@H]1C(=O)NC(c1ccccc1)c1ccccc1)C1CC1 [CJ-464-2]

- Ki [2]: > 200 µM
Compound: CC(C)[C@H](NC(=O)[C@H](C)N)C(=O)N1CCC[C@H]1CCc1ccccc1 [SH-64]

- Ki [2]: 0.7 µM
Compound: CC(C)[C@H](NC(=O)[C@H](C)N)C(=O)N1CCC[C@H]1C(=O)NCc1cccc2ccccc12 [CJ-489]

- Ki [2]: 3.22 µM
Compound: CC(C)[C@H](NC(=O)CN)C(=O)N1CCC[C@H]1CCCc1ccccc1 [SH-82]

- Ki [2]: 0.97 µM
Compound: CC(C)[C@H](NC(=O)[C@H](C)N)C(=O)N1CCC[C@H]1C(=O)NCc1ccc(Cl)cc1 [CJ-419]

- Ki [2]: 1.42 µM
Compound: CC(C)[C@H](NC(=O)[C@H](C)N)C(=O)N1CCC[C@H]1C(=O)NCc1cccc(Cl)c1 [CJ-420]

- EC50 (PC-3 cells [5]; [13]): 120 to 130 µM
- Ki [2]: 1.13 µM
- EC50 ([3]; 5 days, MTT): 120 to 130 µM
Compound: CC[C@H](N)C(=O)N[C@H](C(=O)N1CCC[C@H]1C(=O)NC(c1ccccc1)c1ccccc1)C1CCCCC1.Cl [CJ-445]
- apoptosis over control cells (PC-3 cells [4]; 5 μM compound + 25 μM CDDP, 42 hours): about 30%
- apoptosis over control cells (PC-3 cells [4]; [12]): about 35%
- sensitizing PC-3 cells to CDDP-induced apoptosis, compared with Smac8-C (PC-3 cells [4]; 10 μM compound vs 100 μM Smac8-C): as potent as 100 μM Smac8-C

- Ki [2]: 160 µM
Compound: CC(C)[C@H](NC(=O)[C@H](C)N)C(=O)N1CCCC[C@H]1C(=O)NC(c1ccccc1)c1ccccc1 [CJ-458]

- Ki [2]: 0.37 µM
Compound: C[C@H](N)C(=O)N[C@H](C(=O)N1CCC[C@H]1C(=O)NC(c1ccccc1)c1ccccc1)C1CCCC1 [CJ-467]

Compound: CC[C@H](N)C(=O)N[C@H](C(=O)N1CCC[C@H]1C(=O)NC(c1ccccc1)c1ccccc1)C(C)C [Compound 16]
- apoptosis over control cells (PC-3 cells [4]; [12]): 29.3%±1.9%
- apoptosis over control cells (PC-3 cells [4]; 25 μM compound + 25 μM CDDP, 42 hours): 35.8%±0.4%
- apoptosis induction by compound alone (PC-3 cells [4]; alone, 42 hours, SH-97 up to 50 μM): did not induce significantly more apoptosis
- radiosensitization compared with Smac8-C (PC-3 cells [6]; 10 μM SH-97 vs 100 μM Smac8-C, 6 and 8 Gy): more effective than 100 μM of the cell-permeable Smac peptide Smac8-C
- reduction of colony formation as compared to radiation alone (PC-3 cells [6]; 6 Gy, 10 μM compound): more than 10 fold
- reduction of colony formation as compared to radiation alone (PC-3 cells [6]; 6 Gy, 25 μM compound): more than 10 fold
- reduction of colony formation as compared to radiation alone (PC-3 cells [6]; 8 Gy, 10 μM compound): 40 fold
- reduction of colony formation as compared to radiation alone (PC-3 cells [6]; 8 Gy, 25 μM compound): 50 fold
- effect on activity of X-ray radiation (PC-3 cells [6]; 10 and 25 μM SH-97, 100 μM Smac8-C): significantly increased the activity of the radiation
- effect on colony formation by compound itself (PC-3 cells [6]; without radiation, 10 days): no significant effect
- EC50 [3]: 120 to 130 µM
- apoptosis over control cells ([7]; 10 μM compound + 25 μM CDDP): about 50%
- apoptosis over control cells ([7]; 10 μM compound + 50 μM CDDP): ~90%

- EC50 (PC-3 cells [5]; [13]): 120 to 130 µM
- Ki [2]: 13.5 µM
- EC50 ([3]; 5 days, MTT): 120 to 130 µM
Compound: CC[C@H](N)C(=O)N[C@H](C(=O)N1CCC[C@H]1C(=O)NC(c1ccccc1)c1ccccc1)c1ccccc1 [CJ-444]

- maximum binding [8]: 276 mP
- fold higher binding affinity than S9F [9]: 10 fold
- ratio of the Kd values between SM5F and S9F [9]: 7.2 fold
- percent of tracer saturated [10]: 60%
Compound: AbuRPFK-FAM, termed SM5F (fluorescently labeled mutated 5-mer Smac peptide)

- Ki [2]: 55.3 µM
Compound: CCNC(=O)[C@@H]1CCCN1C(=O)[C@@H](NC(=O)[C@H](C)N)C(C)C [CJ-418] (H-Ala-Val-Pro-NHEt)

- Ki [2]: 80.9 µM
Compound: CNC(=O)[C@@H]1CCCN1C(=O)[C@@H](NC(=O)[C@H](C)N)C(C)C [CJ-452] (H-Ala-Val-Pro-NHMe)

- Ki [2]: 41 µM
Compound: CC(C)[C@H](NC(=O)[C@H](C)N)C(=O)N1CCC[C@H]1C(=O)NCc1c[nH]c2ccccc12 [CJ-488]

- Ki [2]: 5.47 µM
Compound: CC(C)[C@H](NC(=O)[C@H](C)N)C(=O)N1CCC[C@H]1COC(c1ccccc1)c1ccccc1 [SH-106]

- EC50 (PC-3 cells [5]; [13]): 120 to 130 µM
- Ki [2]: 10.4 µM
- EC50 ([3]; 5 days, MTT): 120 to 130 µM
Compound: C[C@H](N)C(=O)N[C@H](C(=O)N1CCC[C@H]1C(=O)NC(c1ccccc1)c1ccccc1)c1ccccc1 [CJ-450]

- Ki [2]: 1.34 µM
Compound: CC(C)[C@H](NC(=O)[C@H](C)N)C(=O)N1CCC[C@H]1C(=O)NCc1ccc(O)cc1 [CJ-425]

Compound: [NH2][Pt]([NH2])([Cl])[Cl] [CDDP, cisplatin, reference compound]
- apoptosis as compared to control cells (PC-3 cells [4]; 25 μM CDDP alone, 42 hours): 12-15%
- apoptosis as compared to control cells ([7]; 25 μM CDDP alone): about 30%
- apoptosis as compared to control cells ([7]; 50 μM CDDP alone): about 45%

- Ki [2]: > 200 µM
Compound: CC(C)[C@H](NC(=O)[C@H](C)N)C(=O)N1CCC[C@@H]1CNCc1ccccc1 [SH-81]

- Ki [2]: 1.73 µM
Compound: CC(C)[C@H](NC(=O)[C@H](C)N)C(=O)N1CCC[C@H]1C(=O)NCc1ccccc1Cl [CJ-421]

- Ki [2]: 2.92 µM
Compound: COc1cccc(CNC(=O)[C@@H]2CCCN2C(=O)[C@@H](NC(=O)[C@H](C)N)C(C)C)c1 [CJ-413]

- Ki [2]: 3.88 µM
Compound: COc1ccccc1CNC(=O)[C@@H]1CCCN1C(=O)[C@@H](NC(=O)[C@H](C)N)C(C)C [CJ-414]

- Ki [2]: 3.1 µM
Compound: CC[C@H](N)C(=O)N[C@H](C(=O)N1CCC[C@H]1C(=O)N[C@@H](Cc1ccccc1)c1ccccc1)C(C)C [SH-98]

- Ki [2]: 1.19 µM
Compound: Cc1cccc(CNC(=O)[C@@H]2CCCN2C(=O)[C@@H](NC(=O)[C@H](C)N)C(C)C)c1 [CJ-410]

- Ki [2]: 0.54 µM
Compound: Cc1ccccc1CNC(=O)[C@@H]1CCCN1C(=O)[C@@H](NC(=O)[C@H](C)N)C(C)C [CJ-411]

- Ki [2]: 3.21 µM
Compound: Cc1ccc(CNC(=O)[C@@H]2CCCN2C(=O)[C@@H](NC(=O)[C@H](C)N)C(C)C)cc1 [CJ-409]

Compound: C[C@H](N)C(=O)N[C@H](C(=O)N1CCC[C@H]1C(=O)NC(c1ccccc1)c1ccccc1)C1CCCCC1 [CJ-451]
- EC50 (PC-3 cells [5]; PC-3, read-out: EC50 growth inhibition): 120 to 130 µM
- EC50 [3]: 120 to 130 µM

- ratio of the IC50 values for SM5 and S9 [11]: 6.7 fold
Compound: unlabeled mutated Smac 5-mer peptide (SM5), AbuRPFK

- Ki [2]: 3.99 µM
Compound: CC(C)[C@H](NC(=O)[C@H](C)N)C(=O)N1CCC[C@H]1C(=O)NCCc1c[nH]c2ccccc12 [CJ-376]

Compound: AVPIAQKS [Smac-8, reference compound]
- potentiation of the activity of CDDP in inducing apoptosis (PC-3 cells [4]; negative controls with CDDP): unable to potentiate the activity of CDDP

- Ki [2]: 0.56 µM
Compound: C[C@H](N)C(=O)N[C@@H](CC1CCCCC1)C(=O)N1CCC[C@H]1C(=O)NC(c1ccccc1)c1ccccc1 [CJ-473]

- Ki [2]: 25.7 µM
Compound: CC(C)[C@H](NC(=O)[C@H](C)N)C(=O)N1CCC[C@H]1CNCc1ccccc1 [SH-80]

- Ki [2]: 0.1 µM
Compound: CC[C@H](N)C(=O)N[C@H](C(=O)N1CCC[C@H]1C(=O)N[C@@H](c1ccccc1)c1ccc(CCCOC)cc1)C(C)C [SH-103]

- Ki [2]: 11.7 µM
Compound: COc1ccc(CNC(=O)[C@@H]2CCCN2C(=O)[C@@H](NC(=O)[C@H](C)N)C(C)C)cc1 [CJ-412]

- Ki [2]: 49.2 µM
Compound: CCCNC(=O)[C@@H]1CCCN1C(=O)[C@@H](NC(=O)[C@H](C)N)C(C)C [CJ-453] (H-Ala-Val-Pro-NHPr)
